Data: patent US8987314B2, “Amide, urea or sulfone amide linked benzothiazole inhibitors of endothelial lipase” (Bristol-Myers Squibb Company, priority 2012, dated 2015)
Like-named read-outs stand apart in the source and are kept apart here.

Tests used:
Endothelial lipase (EL) = Endothelial lipase (EL) (Homo sapiens (Human), UniProt Q9Y5X9); assay: EL assay: endothelial lipase activity with fluorescent substrate A10070 in DMPG vesicles; assay type: biochemical
Outline: (§1)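 Vesicles prepared: A10070 dried with DMPG, resuspended in HEPES pH 8.0/NaCl/EDTA, sonicated on ice. Enzyme incubated with compound 30 min at 37° C. Reaction started with 1:10 diluted vesicles. Fluorescence (490/530 nm) followed 60 min; slope from 300–900 secs gives rate.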

hepatic lipase (HL) = hepatic lipase (HL) (Homo sapiens (Human), UniProt P11150); assay: HL assay: hepatic lipase activity with fluorescent substrate A10070 in DMPG vesicles; assay type: biochemical
Outline: as §1

[1] = EL from conditioned media of HT-1080 cells, 30 min incubation with compound at 37° C., A10070/DMPG vesicles
[2] = HL partially purified from conditioned media of COS cells, 30 min incubation with compound at 37° C., A10070/DMPG vesicles

Chain of Endothelial lipase (EL) (Q9Y5X9 21-500): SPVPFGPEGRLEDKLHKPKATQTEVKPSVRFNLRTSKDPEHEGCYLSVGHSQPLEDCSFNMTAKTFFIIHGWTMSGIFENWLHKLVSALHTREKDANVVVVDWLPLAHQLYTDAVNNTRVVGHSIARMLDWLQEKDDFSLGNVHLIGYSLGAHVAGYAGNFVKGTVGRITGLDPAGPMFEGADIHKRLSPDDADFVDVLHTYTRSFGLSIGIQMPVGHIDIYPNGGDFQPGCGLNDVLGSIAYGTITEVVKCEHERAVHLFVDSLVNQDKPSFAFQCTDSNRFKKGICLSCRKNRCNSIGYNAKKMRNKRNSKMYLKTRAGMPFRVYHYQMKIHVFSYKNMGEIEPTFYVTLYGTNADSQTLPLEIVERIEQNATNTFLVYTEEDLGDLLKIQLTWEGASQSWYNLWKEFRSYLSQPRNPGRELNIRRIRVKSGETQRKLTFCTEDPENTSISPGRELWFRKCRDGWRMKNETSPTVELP
Chain of hepatic lipase (HL) (P11150 23-499, species assumed): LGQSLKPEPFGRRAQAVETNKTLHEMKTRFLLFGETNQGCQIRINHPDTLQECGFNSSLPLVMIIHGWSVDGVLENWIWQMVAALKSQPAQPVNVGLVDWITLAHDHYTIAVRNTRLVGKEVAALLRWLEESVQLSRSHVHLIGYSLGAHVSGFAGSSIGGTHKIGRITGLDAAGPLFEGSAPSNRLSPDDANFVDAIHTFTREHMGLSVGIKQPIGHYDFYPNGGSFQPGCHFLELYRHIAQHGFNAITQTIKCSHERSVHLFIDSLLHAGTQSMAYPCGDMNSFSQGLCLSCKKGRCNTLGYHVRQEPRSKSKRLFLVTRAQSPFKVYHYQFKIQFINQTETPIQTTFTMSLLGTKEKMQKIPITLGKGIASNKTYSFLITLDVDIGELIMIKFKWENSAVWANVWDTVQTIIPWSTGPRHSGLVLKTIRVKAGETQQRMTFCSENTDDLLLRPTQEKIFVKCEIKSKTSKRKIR

Structure (SMILES)	IC50 (Endothelial lipase (EL))	IC50 (hepatic lipase (HL))	IC50 (Endothelial lipase (EL); [1])	IC50 (hepatic lipase (HL); [2])
CS(=O)(=O)C(C(=O)NCCS(N)(=O)=O)c1nc2ccc(-c3ccc(O)nc3)cc2s1 (centres unmarked) [Example B187, 2-(Methylsulfonyl)-2-(6-(6-oxo-1,6-dihydro-3-pyridinyl)-1,3-benzothiazol-2-yl)-N-(2-sulfamoylethyl)acetamide]	–	–	16 nM	155 nM
CS(=O)(=O)C(C(=O)NCCS(N)(=O)=O)c1nc2ccc(-c3ccnc(O)c3)cc2s1 (centres unmarked) [Example B189, 2-(methylsulfonyl)-2-(6-(2-oxo-1,2-dihydro-4-pyridinyl)-1,3-benzothiazol-2-yl)-N-(2-sulfamoylethyl)acetamide]	< 10 nM	13 nM	–	–
COCCS(=O)(=O)C(C(=O)NCCS(N)(=O)=O)c1nc2ccc(-c3ccnc(O)c3)cc2s1 (centres unmarked) [Example B190, 2-((2-methoxyethyl)sul-fonyl)-2-(6-(2-oxo-1,2-dihydro-4-pyridinyl)-1,3-benzothiazol-2-yl)-N-(2-sulfamoylethyl)acetamide]	< 10 nM	272 nM	–	–
NS(=O)(=O)CCNC(=O)C(c1nc2ccc(-c3ccnc(O)c3)cc2s1)S(=O)(=O)CCC(F)(F)F (centres unmarked) [Example B191, 2-(6-(2-oxo-1,2-dihydro-4-pyridinyl)-1,3-benzothiazol-2-yl)-N-(2-sulfamoylethyl)-2-((3,3,3-trifluoropropyl)sulfonyl)a-cetamide]	< 10 nM	445 nM	–	–
CS(=O)(=O)C(C(=O)NCCS(N)(=O)=O)c1nc2ccc(-c3cc(O)ncc3F)cc2s1 (centres unmarked) [Example B192, 2-(6-(5-fluoro-2-oxo-1,2-dihydro-4-pyridinyl)-1,3-benzothiazol-2-yl)-2-(methylsulfonyl)-N-(2-sulfamoylethyl)acetamide]	< 10 nM	20600 nM	–	–
CC(C)(C)OC(=O)c1ccc2nc(C(C(=O)NCCS(N)(=O)=O)S(=O)(=O)CCC(F)(F)F)sc2c1 (centres unmarked) [Example B196, tert-Butyl 2-(2-oxo-2-((2-sulfamoylethyl)amino)-1-((3,3-trifluoropropyl)sulfonyl)ethyl)benzo[d]thiazole-6-carboxylate]	–	–	65 nM	379 nM
NS(=O)(=O)CCNC(=O)C(c1nc2ccc(C(=O)N3CCC(F)(F)C3)cc2s1)S(=O)(=O)CCC(F)(F)F (centres unmarked) [Example B197, 2-(6-(3,3-Difluoropyrrolidine-1-carbonyl)benzo[d]thiazol-2-yl)-N-(2-sulfamoylethyl)-2-((3,3,3-trifluoropropyl)sulfonyl)acetamide]	–	–	< 10 nM	10100 nM
NS(=O)(=O)CCNC(=O)C(c1nc2ccc(C(=O)NCCc3c[nH]cn3)cc2s1)S(=O)(=O)CCC(F)(F)F (centres unmarked) [Example B198, N-(2-(1H-imidazol-4-yl)ethyl)-2-(2-oxo-2-((2-sulfamoylethyl)amino)-1-((3,3,3-trifluoropropyl)sul-fonyl)ethyl)-1,3-benzothiazole-6-carboxamide]	148 nM	3930 nM	–	–
CC(C)c1cc(CNC(=O)c2ccc3nc(C(C(=O)NCCS(N)(=O)=O)S(=O)(=O)CCC(F)(F)F)sc3c2)on1 (centres unmarked) [Example B199, N-((3-isopropyl-5-isoxazolyl)methyl)-2-(2-oxo-2-((2-sulfamoylethyl)a-mino)-1-((3,3,3-trifluoropropyl)sulfonyl)eth-yl)-1,3-benzothiazole-6-carboxamide]	166 nM	3670 nM	–	–
NS(=O)(=O)CCNC(=O)C(c1nc2ccc(C(=O)N3CC(F)(F)C3)cc2s1)S(=O)(=O)CCC(F)(F)F (centres unmarked) [Example B200, 2-(6-((3,3-difluoro-1-azetidinyl)carbonyl)-1,3-benzothiazol-2-yl)-N-(2-sulfamoylethyl)-2-((3,3,3-trifluoropropyl)sulfonyl)a-cetamide]	26 nM	10000 nM	–	–
NS(=O)(=O)CCNC(=O)C(c1nc2ccc(C(=O)N3CCc4ccccc4C3)cc2s1)S(=O)(=O)CCC(F)(F)F (centres unmarked) [Example B201, 2-(6-(3,4-dihydro-2(1H)-isoquinolinylcarbonyl)-1,3-benzothiazol-2-yl)-N-(2-sulfamoylethyl)-2-((3,3,3-trifluoropropyl)sulfonyl)a-cetamide]	23 nM	311 nM	–	–
COCCNC(=O)c1cccc(-c2ccc3nc(C(C(=O)NCCS(N)(=O)=O)S(=O)(=O)CCC(F)(F)F)sc3c2)c1 (centres unmarked) [Example B202, N-(2-methoxyethyl)-3-(2-(2-oxo-2-((2-sulfamoylethyl)amino)-1-((3,3,3-trifluoropropyl)sulfonyl)ethyl)benzo[d]thiazol-6-yl)benzamide]	–	–	24 nM	170 nM
Cc1cc2nc(C(C(=O)NCCS(N)(=O)=O)S(C)(=O)=O)sc2cc1-c1cnn(C)c1 (centres unmarked) [Example B203, 2-(5-methyl-6-(1-methyl-1H-pyrazol-4-yl)-1,3-benzothiazol-2-yl)-2-(methylsulfonyl)-N-(2-sulfamoylethyl)acetamide]	–	–	10 nM	141 nM
COCCS(=O)(=O)C(C(=O)NCc1nnc(C)o1)c1nc2ccc(-c3ccccc3)cc2s1 (centres unmarked) [Example B204, 2-(2-methoxyethane-sulfonyl)-N-[(5-methyl-1,3,4-oxadiazol-2-yl)methyl]-2-(6-phenyl-1,3-benzothiazol-2-yl)a-cetamide]	23.7 nM	17.5 nM	–	–
COC(=O)CCS(=O)(=O)C(C(=O)NCc1nnc(C)o1)c1nc2ccc(-c3ccccc3)cc2s1 (centres unmarked) [Example B205, methyl 3-({[(5-methyl-1,3,4-oxadiazol-2-yl)meth-yl]carbamoyl}(6-phenyl-1,3-benzothiazol-2-yl)methanesulfonyl)pro-panoate]	205 nM	101 nM	–	–

Next, values leading:

IC50 (Endothelial lipase (EL))	IC50 (hepatic lipase (HL))	IC50 (Endothelial lipase (EL); [1])	IC50 (hepatic lipase (HL); [2])	Structure (SMILES)
< 10 nM	< 10 nM	–	–	COc1cccc(-c2ccc3nc(C(C(=O)NCCS(N)(=O)=O)S(C)(=O)=O)sc3c2)n1 (centres unmarked) [Example B185, 2-(6-(6-methoxy-2-pyridinyl)-1,3-benzothiazol-2-yl)-2-(methylsulfonyl)-N-(2-sulfamoylethyl)acetamide]
1.1 nM	10000 nM	–	–	CC(C)(O)Cn1cc(-c2ccc3nc(C(C(=O)NCCS(N)(=O)=O)S(C)(=O)=O)sc3c2)ccc1=O (centres unmarked) [Example B186, 2-(6-(1-(2-hydroxy-2-methylpropyl)-6-oxo-1,6-dihydro-3-pyridinyl)-1,3-benzothiazol-2-yl)-2-(methylsulfonyl)-N-(2-sulfamoylethyl)acetamide]
< 10 nM	398 nM	–	–	CS(=O)(=O)C(C(=O)NCCS(N)(=O)=O)c1nc2ccc(-c3cccc(O)n3)cc2s1 (centres unmarked) [Example B188, 2-(methylsulfonyl)-2-(6-(6-oxo-1,6-dihydro-2-pyridinyl)-1,3-benzothiazol-2-yl)-N-(2-sulfamoylethyl)acetamide]
0.5 nM	238 nM	–	–	CS(=O)(=O)C(C(=O)NCCS(N)(=O)=O)c1nc2ccc(-c3ccnc(O)c3F)cc2s1 (centres unmarked) [Example B193, 2-[6-(3-fluoro-2-hydroxy-4-pyridinyl)-1,3-benzothiazol-2-yl]-2-(methylsulfonyl)-N-(2-sulfamoylethyl)acetamide]
2 nM	95 nM	–	–	CS(=O)(=O)C(C(=O)NCCS(N)(=O)=O)c1nc2cc(-c3ccnc(O)c3)ccc2s1 (centres unmarked) [Example B194, 2-(methylsulfonyl)-2-(5-(2-oxo-1,2-dihydro-4-pyridinyl)-1,3-benzothiazol-2-yl)-N-(2-sulfamoylethyl)acetamide]
1 nM	105 nM	–	–	CS(=O)(=O)C(C(=O)NCCS(N)(=O)=O)c1nc2cc(-c3ccc(O)nc3)ccc2s1 (centres unmarked) [Example B195, 2-(methylsulfonyl)-2-(5-(6-oxo-1,6-dihydro-3-pyridinyl)-1,3-benzothiazol-2-yl)-N-(2-sulfamoylethyl)acetamide]
1.4 nM	2.8 nM	–	–	CS(=O)(=O)C(C(=O)NCCS(N)(=O)=O)c1nc2ccc(-c3ccc(Cl)cc3)cc2s1 (centres unmarked) [Example B207, 2-[6-(4-chlorophenyl)-1,3-benzothiazol-2-yl]-2-methanesulfonyl-N-(2-sulfamoylethyl)acetamide]
0.8 nM	0.8 nM	–	–	CS(=O)(=O)C(C(=O)NCCS(N)(=O)=O)c1nc2ccc(-c3cccc(Cl)c3)cc2s1 (centres unmarked) [Example B208, 2-[6-(3-chlorophenyl)-1,3-benzothiazol-2-yl]-2-methanesulfonyl-N-(2-sulfamoylethyl)acetamide]
8 nM	13.9 nM	–	–	CS(=O)(=O)C(C(=O)NCCS(N)(=O)=O)c1nc2ccc(-c3cc(F)cc(Cl)c3)cc2s1 (centres unmarked) [Example B209, 2-[6-(3-chloro-5-fluorophenyl)-1,3-benzothiazol-2-yl]-2-methanesulfonyl-N-(2-sulfamoylethyl)acetamide]
1.6 nM	160 nM	–	–	CS(=O)(=O)C(C(=O)NCCS(N)(=O)=O)c1nc2ccc(-c3ccc(C(N)=O)cc3)cc2s1 (centres unmarked) [Example B214, 4-(2-{methanesulfonyl[(2-sul-famoylethyl)carbamoyl]meth-yl}-1,3-benzothiazol-6-yl)benzamide]
4.4 nM	3.6 nM	–	–	COCc1cccc(-c2ccc3nc(C(C(=O)NCCS(N)(=O)=O)S(C)(=O)=O)sc3c2)c1 (centres unmarked) [Example B215, 2-methanesulfonyl-2-{6-[3-(methoxymethyl)phen-yl]-1,3-benzothiazol-2-yl}-N-(2-sulfamoylethyl)a-cetamide]
2.1 nM	155 nM	–	–	CS(=O)(=O)C(C(=O)NCCS(N)(=O)=O)c1nc2ccc(-c3ccc(C(=O)NC4CC4)cc3)cc2s1 (centres unmarked) [Example B216, N-cyclopropyl-4-(2-{methanesulfonyl[(2-sulfa-moylethyl)carbamoyl]meth-yl}-1,3-benzothiazol-6-yl)benzamide]
2.3 nM	3.6 nM	–	–	CC(C)Oc1ccc(-c2ccc3nc(C(C(=O)NCCS(N)(=O)=O)S(C)(=O)=O)sc3c2)cc1Cl (centres unmarked) [Example B217, 2-{6-[3-chloro-4-(propan-2-yloxy)phenyl]-1,3-benzothiazol-2-yl}-2-methanesulfonyl-N-(2-sulfamoylethyl)acetamide]
